In article PMC2824046 (Journal of the American Chemical Society, 2010):

Target: protein phosphatase 2A (PP2A)
Experiment: PP2A inhibition assay
Assay type: biochemical

IC50: 0.72 µM
Compound: CCCCC/C=C/C=C\C=C/[C@H](O)[C@H](C)[C@H](C/C=C/[C@@H]1OC(=O)C=C[C@@H]1O)OP(=O)(O)O [compound 2, phostriecin]
